From ChEMBL document CHEMBL1149146, “Synthesis and biological evaluation of new 1,2-dihydro-4-hydroxy-2-oxo-3-quinolinecarboxamides for treatment of autoimmune disorders: structure-activity relationship” (2004) come the findings set out here.

In experiment [1] the test system is Mus musculus. As to the kind of experiment: Inhibition of acute experimental autoimmune encephalomyelitis (aEAE) induced in SJL/N mice at a dose of 1 mg/kg/day, (po) was determined; Inactive. Type of experiment: functional.
Experiment [2] has as its system Mus musculus. As to the kind of experiment: Inhibition of acute experimental autoimmune encephalomyelitis (aEAE) induced in SJL/N mice at a dose of 5 mg/kg/day, (po) was determined; Inactive. The class given is functional.
Experiment [3] deals with Mus musculus. As to the kind of experiment: Inhibition of acute experimental autoimmune encephalomyelitis (aEAE) in SJL/N mice at a dose of 1 mg/kg/day, (po/sc) was determined. Type of experiment: functional.
Experiment [4] concerns Mus musculus. As to the kind of experiment: Inhibition of acute experimental autoimmune encephalomyelitis (aEAE) in SJL/N mice at a dose of 5 mg/kg/day, (po/sc) was determined. The class given is functional.
The subject of experiment [5] is Mus musculus. As to the kind of experiment: Inhibition of acute experimental autoimmune encephalomyelitis in SJL/N mice by 0.2 mg/kg/day p.o./s.c. The class given is functional. The note with it: po.
Experiment [6] relates to Mus musculus. As to the kind of experiment: Inhibition of acute experimental autoimmune encephalomyelitis (aEAE) induced in SJL/N mice at a dose of 5 mg/kg/day, (po/sc) was determined; Inactive. Type of experiment: functional.
Experiment [7] relates to Mus musculus. As to the kind of experiment: Inhibition of acute experimental autoimmune encephalomyelitis (aEAE) induced in SJL/N mice at a dose of 1 mg/kg/day, (po/sc) was determined; Inactive. Type of experiment: functional.
In experiment [8] the test system is Mus musculus. As to the kind of experiment: Inhibition of acute experimental autoimmune encephalomyelitis (aEAE) induced in SJL/N mice at a dose of 5 mg/kg/day was determined. Type of experiment: functional.
The test system of experiment [9] is Mus musculus. As to the kind of experiment: Inhibition of acute experimental autoimmune encephalomyelitis (aEAE) induced in SJL/N mice at a dose of 0.2 mg/kg/day, (sc) was determined; Inactive. The class given is functional.
Experiment [10] relates to Mus musculus. As to the kind of experiment: Inhibition of acute experimental autoimmune encephalomyelitis (aEAE) induced in SJL/N mice at a dose of 1 mg/kg/day, (sc) was determined; Inactive. Type of experiment: functional.
Experiment [11] relates to Mus musculus. As to the kind of experiment: Inhibition of acute experimental autoimmune encephalomyelitis in SJL/N mice by 1 mg/kg/day p.o./s.c. The class given is functional. The note with it: route oral.
Experiment [12] deals with Mus musculus. As to the kind of experiment: Inhibition of acute experimental autoimmune encephalomyelitis in SJL/N mice by 5 mg/kg/day p.o./s.c. Type of experiment: functional. The note with it: route oral.
Experiment [13] concerns Mus musculus. As to the kind of experiment: Inhibition of acute experimental autoimmune encephalomyelitis (aEAE) induced in SJL/N mice at a dose of 0.2 mg/kg/day, (po/sc) was determined; Inactive. The class given is functional.
The test system of experiment [14] is Mus musculus. As to the kind of experiment: Inhibition of acute experimental autoimmune encephalomyelitis (aEAE) induced in SJL/N mice at a dose of 5 mg/kg/day, (sc) was determined. Type of experiment: functional.
The subject of experiment [15] is Mus musculus. As to the kind of experiment: Inhibition of acute experimental autoimmune encephalomyelitis (aEAE) induced in SJL/N mice at a dose of 1 mg/kg/day, (po). The class given is functional.
Experiment [16] concerns Mus musculus. As to the kind of experiment: Inhibition of acute experimental autoimmune encephalomyelitis (aEAE) induced in SJL/N mice at a dose of 0.2 mg/kg/day, (po) was determined; Inactive <35% inhibition. Type of experiment: functional, organism-based.
Experiment [17] deals with Mus musculus. As to the kind of experiment: Inhibition of acute experimental autoimmune encephalomyelitis in SJL/N mice by 5 mg/kg/day p.o. The class given is functional. The note with it: route oral.

The source made the active and inactive calls.

For the compound `CN(C(=O)c1c(O)c2c(Oc3ccc(F)cc3)cccc2n(C)c1=O)c1ccccc1`, the inhibition in vivo at 1 mg/kg/day in the experiment with Mus musculus [1] was < 35%. Moreover, the inhibition in vivo at 5 mg/kg/day in the experiment with Mus musculus [2] was < 35%.
For `CN(C)c1ccc2c(c1)c(O)c(C(=O)N(C)c1ccccc1)c(=O)n2C`, in the experiment with Mus musculus [2], the inhibition in vivo at 5 mg/kg/day is < 35%.
`CN(C(=O)c1c(O)c2ccccc2n(C)c1=O)c1ccccc1` [ROQUINIMEX]: in the experiment on Mus musculus [3], the inhibition in vivo at 1 mg/kg/day stood at 43%. In the experiment on Mus musculus [4], this compound displayed an inhibition in vivo at 5 mg/kg/day of 71%. In addition, in the experiment with Mus musculus [5], the inhibition in vivo at 0.2 mg/kg/day is 35%.
For `COc1ccc(N(C)C(=O)c2c(O)c3ccccc3n(C3CC3)c2=O)cc1`, the inhibition in vivo at 5 mg/kg/day in the experiment with Mus musculus [6] was < 35%. The inhibition in vivo at 1 mg/kg/day with Mus musculus [7] is < 35%.
As to `CCc1ccc2c(c1)c(O)c(C(=O)N(CC)c1ccccc1)c(=O)n2C`, in the experiment with Mus musculus [1], the inhibition in vivo at 1 mg/kg/day is < 35%. For the same compound, the inhibition in vivo at 5 mg/kg/day in the experiment on Mus musculus [2] was < 35%.
In the experiment with Mus musculus [8], `CN(C(=O)c1c(O)c2cccc(F)c2n(C)c1=O)c1ccc(F)cc1` displayed an inhibition in vivo at 5 mg/kg/day of 55%. Moreover, the inhibition in vivo at 0.2 mg/kg/day in the experiment on Mus musculus [9] is < 35%. In addition, in the experiment with Mus musculus [10], the inhibition in vivo at 1 mg/kg/day was < 35%.
In the experiment on Mus musculus [11], `CCN(C(=O)c1c(O)c2cc(Cl)ccc2n(C)c1=O)c1ccccc1` had an inhibition in vivo at 1 mg/kg/day of 62%. This compound yielded an inhibition in vivo at 5 mg/kg/day in the experiment on Mus musculus [12] of 83%. In addition, the inhibition in vivo at 0.2 mg/kg/day with Mus musculus [13] was < 35%.
`CN(C(=O)c1c(O)c2ccc(C(F)(F)F)cc2n(C)c1=O)c1ccc(F)cc1` registered an inhibition in vivo at 5 mg/kg/day with Mus musculus [14] of 35%.
The same measure, in the same setting: then `CCOc1ccc2c(c1)c(O)c(C(=O)N(C)c1ccc(F)cc1)c(=O)n2C`, with 53%; and `Cc1ccc2c(O)c(C(=O)N(C)c3ccccc3)c(=O)n(C)c2c1`, with 53%.
The compound `CCN(C(=O)c1c(O)c2c(C)cccc2n(C)c1=O)c1ccccc1` had an inhibition in vivo at 1 mg/kg/day in the experiment on Mus musculus [15] of 65%. Moreover, the inhibition entry with Mus musculus [16] is “inactive”. Besides, in the experiment with Mus musculus [17], the inhibition in vivo at 5 mg/kg/day came out at 85%.

The inhibition in vivo is the change of the read-out against control, counted positive when it falls. Low values mean little suppression, high ones strong suppression.
